Experimental data: publication PMC7956625, “Optimization and Anti-Cancer Properties of Fluoromethylketones as Covalent Inhibitors for Ubiquitin C-Terminal Hydrolase L1” (Molecules, 2021)
pIC50, pKi: −log10 of the molar value. Where a SMILES comes first, the peptide text is derived from it. [ ]: non-standard residue; d: D form. The star is where a group is joined. Cbz = O=C(OCc1ccccc1)*; CH2Cl = ClC*; CH2F = FC*

Legend:
[1] = SW1271 cell viability assay; type: cell-based; settings: human, SW1271 small cell lung cancer cells (luciferase-constructed), SW1271 cells
Procedure: UCHL1 is a key promoter of cell invasion and metastasis in small cell lung cancer but not necessarily required for cell viability or proliferation. Thus, we chose to assess the efficacy of targeting UCHL1 using the SW1271 small cell lung cancer cell line. […] The Ub-ABP assay was used to confirm on target engagement of UCHL1 within these cells.
Luciferase-constructed cancer cells were seeded in 96-well plates at 10,000 cells/well with the compounds at the indicated concentrations. DMSO was used as vehicle control. Luminescence readings were acquired after adding 1% D-luciferin (GoldBio, St. Louis, MO, USA) after 24 h. Cell viability was determined by the ratio of luminescence reading compared to the one at 0 h, and normalized to vehicle control.

UCHL1 [2] = molecular target: T1, UCHL1 (Homo sapiens, UniProt P09936); assay: Fluorescence-based Ub-Rho deubiquitinase activity assay; type: biochemical; design: made in house; settings: for pIC50: 3 h of preincubation with UCHL1, technical triplicate, averages, read-out: IC50; for in vitro activity against UCHL1: up to 200 µM
T1 sequence (P09936 1-223): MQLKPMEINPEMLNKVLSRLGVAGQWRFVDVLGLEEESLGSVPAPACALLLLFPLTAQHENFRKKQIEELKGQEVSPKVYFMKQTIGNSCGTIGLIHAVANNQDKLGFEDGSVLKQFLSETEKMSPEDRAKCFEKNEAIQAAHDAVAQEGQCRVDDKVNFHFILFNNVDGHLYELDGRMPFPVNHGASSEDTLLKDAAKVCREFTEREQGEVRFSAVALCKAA
Procedure: Thus, a 3-h preincubation period was selected for the structure-activity relationship (SAR) comparison of all analogs to ensure full reaction time and for consistent comparison of activity against UCHL1 within the scaffold. […] A 10 mM stock solution was made for each inhibitor in DMSO, then a dilution of 600 µM in reaction buffer was made followed eight by 1:1 serial dilutions. […] These were allowed to incubate, while sealed, for the 3 h at room temperature. […] The % activity was plotted as a function of inhibitor concentration and the data was fitted with non-linear regression analysis to calculate the IC50 values. Errors are reported as the 95% confidence interval calculated from experiments collected in technical triplicate.

UCHL1 [3] = molecular target: T1, UCHL1; assay: as above; type: biochemical; design: made in house; settings: even after 6 h of incubation with the enzyme
UCHL1 [4] = molecular target: T1, UCHL1; assay: Time-dependent inhibitor analysis (kinact/KI); type: biochemical; design: made in house
Procedure: Irreversible covalent inhibitors may be further characterized by determining the reversible binding constant (KI) as well as the rate of the covalent bond formation under saturating conditions (kinact). By determining the IC50 over the course of various timepoints, the pseudo first-order rate constant (kobs) could be calculated. […] The % activity of each inhibitor concentration was the plotted vs. time of pre-incubation and the slope of this plot is the pseudo first-order rate constant (kobs) for inhibition at each concentration. The kobs was plotted as a function of inhibitor concentration and then fit to the equation Y = kinactX/(KI + X) to calculate kinact, KI and kinact/KI as described by Resnick et al..

SW1271 cells = assay: Click reaction and in-gel fluorescence of treated SW1271 cells; type: cell-based; settings: 100 µM, 4 h
Procedure: Leveraging the alkyne handle, a click reaction was performed with an azide containing sulfo-cyanine5 fluorophore (Cy5) to visualize proteins within the cells that were conjugated to either the fluoromethylketone 34 or the chloromethylketone 37. Cells were pretreated with either analog then harvested and washed to removed unreacted inhibitor. The cells were then lysed and the click reaction was performed on lysates. […] Further evaluation using proteomic profiling is warranted to gain a quantitative understanding on the potential for non-specificity at off-target cysteines.
Cells were treated with 100 µM inhibitor or DMSO for 4 h before being washed, scraped, and lysed in 200 µL of lysis buffer (1× PBS, 1% v/v Triton X-100, 0.1% w/v SDS, 1X HALT) for 30 min on ice with vigorous vortexing every 10 min. Samples were then pelleted at 17,000× g for 10 min before collecting the supernatant and measuring concentration using BCA. Samples were normalized to 2 mg/mL and stored at −80 °C overnight. The following day, samples were thawed. While thawing, a click cocktail was prepared (for each sample, the cocktail consists of: 3 µL of 1.7 mM THPTA in 1:4 tBuOH/DMSO, 1 µL of 50 mM CuSO4 in water, 1 µL of 1.25 mM Cy5-N3 in DMSO, and 1 µL of 50 mM TCEP in water freshly prepared). […] The samples were then analyzed by SDS-PAGE and imaged on a Licor Odyssey and subsequently Coomassie stained.

KMS-12 cell lines = test system: KMS-12 cell lines; design: method as in PMID 31449350; settings: cells do not express UCHL1; cited from earlier work
UCHL1 [5] = molecular target: T1, UCHL1; design: made in house; settings: previous studies; cited from earlier work
[6] = IC50 comparison, 3 h preincubation

| SMILES | pIC50 (UCHL1 [2]) | also measured |
| --- | --- | --- |
| COC(=O)CC[C@H](NC(=O)CNC(=O)[C@@H](NC(=O)OCc1ccccc1)C(C)C)C(=O)CF [Cpd 15] (Cbz-Val-Gly-Glu(OMe)-CH2F) | 4.02 | – |
| CC(C)[C@H](NC(=O)OCc1ccccc1)C(=O)NCC(=O)N[C@@H](CCC(=O)O)C(=O)CF [Cpd 16] (Cbz-Val-Gly-Glu-CH2F) | < 3.70 | in vitro activity against UCHL1 (UCHL1 [3]): complete abrogation of activity |
| COC(=O)CC[C@H](NC(=O)[C@H](C)NC(=O)[C@H](NC(=O)OCc1ccccc1)C(C)C)C(=O)CF [Cpd 17] (Cbz-[dV]-Ala-Glu(OMe)-CH2F) | < 3.70 | in vitro activity against UCHL1 (UCHL1 [2]): complete loss of activity |
| COC(=O)CC[C@H](NC(=O)[C@H](C)NC(=O)CNC(=O)OCc1ccccc1)C(=O)CF [Cpd 18] (Cbz-Gly-Ala-Glu(OMe)-CH2F) | < 3.70 | in vitro activity against UCHL1 (UCHL1 [2]): complete abrogation of activity |
| COC(=O)CC[C@H](NC(=O)[C@H](C)NC(=O)[C@H](C)NC(=O)OCc1ccccc1)C(=O)CF [Cpd 19] (Cbz-Ala-Ala-Glu(OMe)-CH2F) | 4.12 | fold less effective than parent compound 1 (UCHL1 [2]; [6]): 3 fold |
| COC(=O)CC[C@H](NC(=O)[C@H](C)NC(=O)[C@H](Cc1ccccc1)NC(=O)OCc1ccccc1)C(=O)CF [Cpd 21, Cbz-L-Phe-L-Ala-L-Glu(OMe)-fluoromethylketone] (Cbz-Phe-Ala-Glu(OMe)-CH2F) | 4.89 | – |
| COC(=O)CC[C@H](NC(=O)[C@H](C)NC(=O)[C@H](CC(N)=O)NC(=O)OCc1ccccc1)C(=O)CF [Cpd 24] (Cbz-Asn-Ala-Glu(OMe)-CH2F) | 3.92 | – |
| COC(=O)CC[C@H](NC(=O)[C@@H](C)NC(=O)[C@@H](NC(=O)OCc1ccccc1)C(C)C)C(=O)CF [Cpd 26] (Cbz-Val-[dA]-Glu(OMe)-CH2F) | < 3.70 | in vitro activity against UCHL1 (UCHL1 [2]): loss of activity |
| COC(=O)CC[C@H](NC(=O)[C@H](Cc1ccccc1)NC(=O)[C@@H](NC(=O)OCc1ccccc1)C(C)C)C(=O)CF [Cpd 28] (Cbz-Val-Phe-Glu(OMe)-CH2F) | < 3.70 | – |
| COC(=O)CC[C@H](NC(=O)[C@H](CC(=O)O)NC(=O)[C@@H](NC(=O)OCc1ccccc1)C(C)C)C(=O)CF [Cpd 32] (Cbz-Val-Asp-Glu(OMe)-CH2F) | < 3.70 | – |
| COC(=O)CC[C@H](NC(=O)[C@H](CCC(=O)O)NC(=O)[C@@H](NC(=O)OCc1ccccc1)C(C)C)C(=O)CF [Cpd 33] (Cbz-Val-Glu-Glu(OMe)-CH2F) | < 3.70 | – |
| C#Cc1ccc(COC(=O)N[C@H](C(=O)NCC(=O)N[C@@H](CCC(=O)OC)C(=O)CF)C(C)C)cc1 [Cpd 35] | 4.21 | fold more active than non-alkyne analog 15 (UCHL1 [2]; [6]): about 1.5 fold |
| C#Cc1ccc(COC(=O)N[C@H](C(=O)N[C@@H](C)C(=O)N[C@@H](CCC(=O)OC)C(=O)CCl)C(C)C)cc1 [Cpd 37] | < 3.70 | CC50 at 24 h [1]: 0.176 µM; proteins labelled in SW1271 cells (Cy5 click, in-gel fluorescence) (SW1271 cells): non-specifically label multiple proteins within the cell; in vitro activity against UCHL1 (UCHL1 [2]): inactive |
| N#CN1CCC[C@H]1C(=O)N1CCc2c(-c3cn[nH]c3C(F)(F)F)cccc21 [MT-19] | – | anti-proliferative properties in KMS-12 cell lines (KMS-12 cell lines): anti-proliferative properties |
| COC(=O)C[C@H](NC(=O)[C@H](C)NC(=O)[C@@H](NC(=O)OCc1ccccc1)C(C)C)C(=O)CF [VADFMK] (Cbz-Val-Ala-Asp(OMe)-CH2F) | – | activity against UCHL1 (UCHL1 [5]): inactive |

Now from value to compound, other results behind:

| pIC50 (UCHL1 [2]) | SMILES | also measured |
| --- | --- | --- |
| < 3.70 | COC(=O)CC[C@H](NC(=O)[C@H](C)NC(=O)[C@@H](NC(=O)OCc1ccccc1)C(C)C)C(=O)CCl [Cpd 14] (Cbz-Val-Ala-Glu(OMe)-CH2Cl) | CC50 at 24 h [1]: 0.156 µM; in vitro activity against UCHL1 (UCHL1 [2]): complete loss of in vitro activity |
| 4.64 | COC(=O)CC[C@H](NC(=O)[C@H](C)NC(=O)[C@H](CC(C)C)NC(=O)OCc1ccccc1)C(=O)CF [Cpd 20] (Cbz-Leu-Ala-Glu(OMe)-CH2F) | – |
| 3.73 | COC(=O)CC[C@H](NC(=O)[C@H](C)NC(=O)[C@H](CO)NC(=O)OCc1ccccc1)C(=O)CF [Cpd 22] (Cbz-Ser-Ala-Glu(OMe)-CH2F) | – |
| 4.00 | COC(=O)CC[C@H](NC(=O)[C@H](C)NC(=O)[C@@H](NC(=O)OCc1ccccc1)[C@@H](C)O)C(=O)CF [Cpd 23] (Cbz-Thr-Ala-Glu(OMe)-CH2F) | – |
| < 3.70 | COC(=O)CC[C@H](NC(=O)[C@H](C)NC(=O)[C@H](CC(=O)O)NC(=O)OCc1ccccc1)C(=O)CF [Cpd 25] (Cbz-Asp-Ala-Glu(OMe)-CH2F) | – |
| < 3.70 | COC(=O)CC[C@H](NC(=O)[C@H](CC(C)C)NC(=O)[C@@H](NC(=O)OCc1ccccc1)C(C)C)C(=O)CF [Cpd 27] (Cbz-Val-Leu-Glu(OMe)-CH2F) | – |
| 4.00 | COC(=O)CC[C@H](NC(=O)[C@H](CO)NC(=O)[C@@H](NC(=O)OCc1ccccc1)C(C)C)C(=O)CF [Cpd 29] (Cbz-Val-Ser-Glu(OMe)-CH2F) | – |
| < 3.70 | COC(=O)CC[C@H](NC(=O)[C@@H](NC(=O)[C@@H](NC(=O)OCc1ccccc1)C(C)C)[C@@H](C)O)C(=O)CF [Cpd 30] (Cbz-Val-Thr-Glu(OMe)-CH2F) | – |
| < 3.70 | COC(=O)CC[C@H](NC(=O)[C@H](CC(N)=O)NC(=O)[C@@H](NC(=O)OCc1ccccc1)C(C)C)C(=O)CF [Cpd 31] (Cbz-Val-Asn-Glu(OMe)-CH2F) | – |
| 4.96 | C#Cc1ccc(COC(=O)N[C@@H](Cc2ccccc2)C(=O)N[C@@H](C)C(=O)N[C@@H](CCC(=O)OC)C(=O)CF)cc1 [Cpd 36] | fold more active than 1 versus UCHL1 (UCHL1 [2]; [6]): 2 fold; kinact/KI (UCHL1 [4]; Table 3 and text, read-out: kinact/KI): 208 M⁻¹ s⁻¹; kinact (UCHL1 [4]; read-out: kinact): 0.0157 s⁻¹; pKi (UCHL1 [4]; reversible binding constant of covalent inhibition, read-out: KI): 4.12 |
